Data from ChEMBL document CHEMBL1121794, “Octanol-physiological buffer distribution coefficients of lipophilic amines by reversed-phase high-performance liquid chromatography and their correlation with biological activity” (J Med Chem, 1981).

Key:
[1] = (§1) Partition coefficient (logD7.4); conditions: octanol/water, pH 7.4
[2] = not given; remark: listed apart in the source
Rattus norvegicus [3] = organism: Rattus norvegicus
physchem [4] = conditions: octanol/water
physchem [5] = conditions: octanol/water; remark: listed apart in the source
[6] = octanol/water
Description: Partition coefficient (logD, measured by HPLC, log k')

[7] = not given; remark: listed apart in the source
[8] = not given; remark: listed apart in the source
[9] = not given; remark: listed apart in the source
[10] = not given; remark: listed apart in the source
[11] = not given; remark: listed apart in the source
[12] = (§2) Partition coefficient (logD) (HPLC); type: physicochemical; conditions: octanol/water
[13] = as §1; conditions: octanol/water, pH 7.4; remark: listed apart in the source
[14] = (§3) logD (measured by HPLC) (as log k'); type: ADME
[15] = as §3; type: ADME; remark: listed apart in the source
[16] = not given; remark: listed apart in the source
[17] = not given; remark: listed apart in the source
Rattus norvegicus [18] = organism: Rattus norvegicus; remark: listed apart in the source
Rattus norvegicus [19] = organism: Rattus norvegicus; remark: listed apart in the source
Description: Apparent partition coefficient was measured as histamine releasing activity in rat mast cells.

physchem [20] = conditions: octanol/water, pH 7.4
[21] = as §2; type: physicochemical; conditions: octanol/water; remark: listed apart in the source
[22] = not given; remark: listed apart in the source
physchem [23] = conditions: octanol/water; remark: listed apart in the source
physchem [24] = conditions: octanol/water; remark: listed apart in the source
[25] = not given; remark: listed apart in the source
[26] = not given; remark: listed apart in the source
[27] = not given; remark: listed apart in the source
[28] = not given; remark: listed apart in the source
[29] = not given; remark: listed apart in the source
Rattus norvegicus [30] = organism: Rattus norvegicus; experiment: Log (1/ED50) was measured as histamine releasing activity in rat mast cells; log(1/ED50*10e-3).; type: functional
[31] = not given; remark: listed apart in the source
[32] = as §1; type: physicochemical; conditions: octanol/water, pH 7.4

SMILES	logD [1]	Log k'	Log k' [2]	Log k' [6]	Log k' [8]	Log k' [9]	Log k' [10]	Log k' [11]	logD [12]	Log k' [17]	logD (physchem [20])	logD [21]	Log k' [28]	Log k' [29]	also measured
CC(=O)c1ccc2c(c1)N(CCCN1CCN(CCO)CC1)c1ccccc1S2 [ACETOPHENAZINE]	2.62	0.808	1.301	–	–	–	–	–	–	–	–	–	–	–	Log 1/ED50 (Rattus norvegicus [3]): 2.12; logD (physchem [4]): 0.728; logD (physchem [5]): 0.366
c1ccc2nc3ccccc3cc2c1 [ACRIDINE]	3.29	1.447	2.103	1.993	0.775	0.685	1.501	2.146	–	–	–	–	–	–	Log k' [7]: 1.556
CN(C)CCC=C1c2ccccc2CCc2ccccc21 [AMITRIPTYLINE]	2.83	–	1.641	–	–	1.264	–	–	2.83	1.279	2.5	–	–	–	pKa [13]: 9.4; Log k' [14]: 1.214; Log k' [15]: 0.753; Log k' [16]: 1.419; Log 1/ED50 (Rattus norvegicus [18]): 1.85; Papp (Rattus norvegicus [19]): 2.3
COc1ccccc1 [ANISOLE]	2.09	0.885	–	–	0.264	0.381	0.332	0.928	0.353	–	–	0.872	–	–	logD [22]: 2.086
c1ccccc1 [BENZENE]	–	–	–	0.874	–	–	–	–	–	–	–	–	–	–	–
Clc1ccccc1 [CHLOROBENZENE]	2.87	1.61	1.61	–	0.773	1.022	1.027	1.631	1.05	–	–	1.56	–	–	–
CN(C)CCC(c1ccc(Cl)cc1)c1ccccn1 (stereo not drawn) [CHLORPHENIRAMINE]	1.38	0.074	0.262	–	0.334	-0.329	0.007	0.273	0.466	–	–	0.466	–	–	logD (physchem [23]): 1.53; logD (physchem [24]): 1.51
CN(C)CCCN1c2ccccc2Sc2ccc(Cl)cc21 [CHLORPROMAZINE]	3.221	–	–	2.061	–	–	1.656	2.144	–	1.751	3.17	–	1.632	1.086	Log k' [14]: 1.911; Log k' [25]: 2.144; Log k' [26]: 1.911; Log k' [27]: 1.667; Papp (Rattus norvegicus [19]): 2.92
CN(C)CC/C=C1/c2ccccc2Sc2ccc(Cl)cc21 [CHLORPROTHIXENE]	–	–	–	–	–	–	–	–	–	–	–	–	–	–	Log k' [14]: 2.142; Histamine release (Rattus norvegicus [30]): 2.57; Papp (Rattus norvegicus [19]): 2.67
CN1CCN(C2=Nc3cc(Cl)ccc3Nc3ccccc32)CC1 [CLOZAPINE]	2.99	1.725	1.73	–	–	–	1.136	1.734	1.4	–	–	1.66	1.15	0.817	–
CN1CCC(=C2c3ccccc3C=Cc3ccccc32)CC1 [CYPROHEPTADINE]	3.11	–	–	1.853	–	–	1.516	1.999	–	1.527	3.14	–	1.43	1.037	Log k' [16]: 1.715; Log k' [26]: 1.715; Log k' [27]: 1.529; Log k' [31]: 1.984
CCCCOc1cc(C(=O)NCCN(CC)CC)c2ccccc2n1 [DIBUCAINE]	2.91	1.11	1.642	1.588	0.915	0.501	1.064	1.651	–	–	–	–	–	–	Log k' [7]: 1.215
CN(C)CCC=C1c2ccccc2COc2ccccc21 [DOXEPIN]	2.22	–	–	1.044	–	–	0.632	1.115	–	0.778	2.2	–	0.886	0.33	logD [32]: 2.22; Log k' [16]: 1.025; Log k' [26]: 1.025; Log k' [27]: 0.642; Log k' [31]: 1.086; logD (physchem [23]): 2.36; logD (physchem [24]): 2.32
